Results as given in ChEMBL document CHEMBL3301361, “Experimental in vitro DMPK and physicochemical data on a set of publicly disclosed compounds”.

test: physchem; details: octan-1-ol/water, pH 7.4, LogD7.4

SMILES	logD
CCN(CCCOCCOCCc1ccccc1)CCc1ccc(O)c2nc(O)sc12	2.45
Cc1cc(C)cc(CCOCCS(=O)(=O)NCCNCCc2ccc(O)c3nc(O)sc23)c1	2.45
CC(=O)Nc1cccc(S(=O)(=O)Nc2ccc(-c3ccccc3)n(CC(=O)NC(C(=O)C(F)(F)F)C(C)C)c2=O)c1 (centres undefined)	2.43
COc1ccc(CCN2CN=C(SCc3ccc(Cl)cc3)NC2)cc1OC	2.41
O=C(COCc1ccncc1)N1CCN(c2ccc(Cl)cc2F)CC1	2.55
CCCC(=O)C1(c2ccccc2)CCN(C(=O)[C@@H](Cc2ccc(OC)cc2)NC(=O)[C@@H](N)Cc2cncn2C)CC1	2.51
Cc1ccc(-n2c(C)cc(C(=O)NS(=O)(=O)c3ccc(C)cc3)c2C)cc1	2.5
Cn1cnc2cc(OC(=O)c3ccccc3)cnc21	2.4
CC(=O)N1CCOc2nc(OCc3ccccc3)ccc21	2.4
O=C1CCOc2nc(CCc3ccccc3)ccc21	2.5
COC(=O)N1CCOc2cc(COc3ccccc3)cnc21	2.5
CS(=O)(=O)N1CCOc2cc(COc3ccccc3)cnc21	2.4
COc1ccccc1N1CCN(Cc2c(Br)c(=O)n(-c3ccccc3)n2C)CC1	2.5
COc1cc(F)ccc1-c1cncc(CNC(=O)c2cnccn2)c1	2.5
CCCCN(CCNC[C@H](O)c1ccc(O)c2[nH]c(=O)sc12)C(=O)CCOCCc1ccccc1	2.51
CCOC(=O)c1ccc(COC2CN(c3ccc(C)nn3)C2)cc1	2.5
COc1cccc(C(=O)NCCCOc2cccc3ccc(N)nc23)c1	2.46
O=C(Cc1ccc(O)cc1)c1ccc(O)cc1O	2.54
CC(Cc1cccc(CNCCc2c(Cl)cccc2Cl)c1)NC[C@H](O)c1ccc(O)c2[nH]c(=O)sc12 (some centres undefined)	2.41
CNc1c(Br)cnc2[nH]c(-c3ccc(O)cc3)nc12	2.47
NC(=O)c1cnc2[nH]c(-c3ccc(OCCN4CCCCC4)cc3)nc2c1NCCCNC(=O)C1CCC1	2.48
Cc1ccc(-c2ccc(N)nn2)cc1NC(=O)c1ccc(OCc2ccccn2)cc1	2.47
Cc1ccc(-c2cn(C)cn2)cc1NC(=O)c1ccc(OCc2ccccn2)cc1	2.54
Cc1ccc(-c2cc(C(F)(F)F)n[nH]2)cc1NC(=O)c1ccc(OCc2ccccn2)cc1	2.44

SMILES	logD
Cn1cncc1-c1c2c(=O)n(CC#CCO)c(=O)n(CC3CC3)c2nn1Cc1ccnc2ccc(Cl)cc12	2.55
Nc1nc(N)c(-c2ccc(NC(=O)C3CC3)cc2)c(COCc2ccccc2)n1	2.46
CCCSc1ncccc1C(=O)N(C)[C@@H]1[C@@H]2CC3C[C@H]1C[C@@](O)(C3)C2	2.49
Cc1cc(Cl)ccc1OC1CCN(C[C@H](O)CNC(=O)c2c[nH]c(=O)c3cc(S(C)(=O)=O)ccc23)CC1	2.42
CC1(O)CN(S(=O)(=O)c2ccc3c(C(=O)NC[C@@H](O)CN4CCC(Oc5ccc(Cl)c(Cl)c5)CC4)c[nH]c(=O)c3c2)C1	2.54
NC1(C(=O)N[C@@H](CCN2CCCCC2)c2ccc(Cl)cc2)CCN(c2ncnc3[nH]ccc23)CC1	2.4
CN(C)C(=O)CC(NC(=O)C1(N)CCN(c2ncnc3[nH]ccc23)CC1)c1ccc(Cl)cc1 (centres undefined)	2.4
CC(=O)NCC(NC(=O)C1(N)CCN(c2ncnc3[nH]ccc23)CC1)c1ccc(Cl)cc1 (centres undefined)	2.4
NC1(C(=O)NC(CO)c2ccc(Cl)cc2)CCN(c2ncnc3[nH]ccc23)CC1 (centres undefined)	2.4
CC(NC(=O)C1(N)CCN(c2ncnc3[nH]ccc23)CC1)c1ccc(F)cc1 (centres undefined)	2.4
CN1CC=CCC(c2cc3ccccc3o2)C1 (centres undefined)	2.47
Cn1c(N)nc(CCc2cccc(-c3cccnc3)c2)cc1=O	2.5
Clc1ccc2[nH]ncc2c1	2.44
CCOc1ccccc1-c1ccc(-c2nc3ccc(F)cc3c(N[C@H](C)C(=O)O)c2C#N)cc1	2.5
Oc1cc(-c2ccccc2)nc2ccccc12	2.54
COc1ccc(S(=O)(=O)Nc2ccc(-c3ccccc3)n(CC(=O)NC(C(=O)C(F)(F)F)C(C)C)c2=O)cc1 (centres undefined)	2.5
CN(C)C(=O)C1(N2CCCCC2=O)CCN(CC[C@H](CN(C)C(=O)c2cc(C#N)cc3ccccc23)c2ccc(Cl)c(Cl)c2)CC1	2.52
COc1ccc2nc(N[C@H]3CCC[C@H](NCc4ccsc4)C3)cc(C)c2c1	2.41
CN(CCOc1ccc(C[C@H](Nc2ccccc2C(=O)c2ccccc2)C(=O)O)cc1)c1nc2ccccc2o1	2.47
CC(C)n1c(=O)n(C)c(=O)c2c(C(=O)N3CCS(=O)(=O)C3)c(Cc3ccccc3C(F)(F)F)sc21	2.55
Cc1ncc(-c2ccnc(Nc3ccc(C(=O)N(C)C)cc3)n2)n1C(C)C	2.45
COc1ccccc1-c1coc2cc(O)ccc2c1=O	2.55
c1ccc(-c2nc3ccccc3[nH]2)nc1	2.5

Results, then the compound that gave them:

logD	SMILES
2.47	CC(C)C(NC(=O)Cn1c(-c2ccc(F)cc2)ncc(NC(=O)OCc2ccccc2)c1=O)C(=O)C(F)(F)F (centres undefined)
2.5	CC(N)(COP(=O)(O)O)C(=O)O (centres undefined)
2.54	COc1cc(C(=O)Nc2cc(NC(=O)c3cccc(N(C)C)c3)ccc2C)cc(OC)c1OC
2.4	O=C1Nc2ccc(S(=O)(=O)N3CCC[C@H]3CNc3ccccc3)cc2C1=O
2.45	CSc1ccc(OCc2ccccc2)c(/C=C/c2ccc(C(=O)O)cn2)c1
2.48	Nc1cc2n[nH]c(=O)n2c2cc(-c3ccco3)ccc12
2.4	O=C(Nc1ccc(N2CCOCC2)cn1)c1nnc(Nc2ccccc2F)o1
2.54	O=C(Nc1ccc(Cl)c(Cl)c1)N1CCN(C[C@@H]2CCCN(CC3CC3)C2)CC1
2.48	CCCSc1ncccc1C(=O)N(C)[C@H]1[C@@H]2CC3C[C@H]1C[C@@](O)(C3)C2
2.4	CCCc1cc(OCc2ccccc2)cc(=O)n1Cc1ccc(-c2ccccc2-c2nn[nH]n2)cc1
2.5	O=C(Cc1ccccc1)Nc1nccs1
2.4	O=C(CN1C(=O)C(NC(=O)c2cc3cc(Cl)sc3[nH]2)Cc2ccccc21)NO (centres undefined)
2.46	CCOc1ccccc1-c1ccc(-c2nc3ccc(F)cc3c(C(=O)NCCOCCN)c2C)cc1
2.52	Nc1nc(CCc2cccc(Br)c2)cc(=O)[nH]1
2.55	Cc1sc(CN2CCNCC2)cc1C(=O)NCC12CC3CC(CC(C3)C1)C2
2.5	Clc1cccc2[nH]ncc12
2.46	COc1ccc2c(C)cc(N[C@H]3CCC[C@H](NCc4ccsc4)C3)nc2c1
2.53	COc1ccc2c(C)cc(N[C@H]3CC[C@H](NCc4cn(C)c5ccccc45)C3)nc2c1
2.49	COC(=O)c1nc2c(N[C@H](C)CO)nc(SCc3cccc(F)c3F)nc2[nH]c1=O
2.4	Fc1ccc(-n2cc(C3CCNCC3)c3cc(Cl)ccc32)cc1
2.41	CC(C)C(NC(=O)Cn1c(-c2ccccc2)ccc(NC(=O)OCc2ccncc2)c1=O)C(=O)C(F)(F)F (centres undefined)
2.5	CNC(=O)C1(N2CCCCC2=O)CCN(CC[C@H](CN(C)C(=O)c2cc(C#N)cc3ccccc23)c2ccc(Cl)c(Cl)c2)CC1
2.41	Cc1ccc2c(-c3ccnc4cc(Cl)ccc34)c(C)n(CC(=O)O)c2c1
2.44	CC(C)c1nnc2ccc(-c3ocnc3-c3cc(F)ccc3F)cn12
2.42	O=C1C(=O)c2cc([N+](=O)[O-])ccc2-c2ccccc21
2.55	O=C(c1cc(Cc2n[nH]c(=O)c3ccccc23)ccc1F)N1CCN(c2ccccn2)CC1
2.53	O=C(NCC1CCCCCC1)c1cc(-c2cccnc2N2CCC(C(=O)O)CC2)ccc1Cl
